The text below walks through data of patent US8242118B2, “Arylsulfonamide derivatives for use as CCR3 antagonists in the treatment of inflammatory and immunological disorders” (Axikin Pharmaceuticals Inc., priority 2001, dated 2012).

One series concerns the target T1, Human CCR3 (Homo sapiens, UniProt P51677).
T1 construct: The cloned CCR3 cDNA was constructed with pcDNA3 vector and transfected into a IC562 cell line; expressed in transfected cells
T1 sequence (P51677 1-355): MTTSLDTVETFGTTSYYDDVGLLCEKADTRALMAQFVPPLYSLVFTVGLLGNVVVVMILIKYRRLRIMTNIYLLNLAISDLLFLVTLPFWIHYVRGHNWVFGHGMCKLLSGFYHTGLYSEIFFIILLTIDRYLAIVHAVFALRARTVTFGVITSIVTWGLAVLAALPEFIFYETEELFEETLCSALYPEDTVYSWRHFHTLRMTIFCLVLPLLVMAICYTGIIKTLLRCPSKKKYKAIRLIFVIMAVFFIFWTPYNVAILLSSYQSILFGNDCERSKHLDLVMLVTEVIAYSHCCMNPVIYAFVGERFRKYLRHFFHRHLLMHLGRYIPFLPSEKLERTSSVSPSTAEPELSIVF
The experiment in a line: Receptor binding assay (RBA), [125I]-eotaxin. The following applies: human CCR3-transformed K562 cells, 0.1 nM [125I]-eotaxin; compounds of about 40 to 90% purity; read-out: Activity grade RBA (IC50 class). How it is done: [Determination of IC50 Values of Compounds in Receptor Binding Assay]
• Human CCR3-transformed K562 cells were used. The cloned CCR3 cDNA was constructed with pcDNA3 vector and transfected into a IC562 cell line. The human CCR3-transformed K562 cells were maintained in RPMI-1640 (Cat.#22400-089, Life Technologies) supplemented with 10% FCS (Cat.#A-1115-L, Hyclone), 55 μM 2-mercaptoethanol (Cat.#21985-023, Life Technologies), 1 mM sodium pyruvate (Cat.#11360-070, Life Technologies), 100 units/ml of penicillin G and 100 μg/ml of streptomycin (Cat.#15140-122, Life Technologies), and 0.4 mg/ml of Geneticin (Cat.#10131-035, Life Technologies)(hereinafter called “culture medium”). Before the receptor binding assay, cells were pretreated with 5 mM sodium butyrate (Cat.#193-01522, Wako)-containing the culture medium (2×10^5 cells/ml) for 20-24 hours to increase the expression of CCR3. (2) Receptor Binding Assay (RBA) • Butyrate-pretreated cells, suspended in binding buffer (25 mM HEPES pH 7.6, 1 mM CaCl2, 5 mM MgCl2, 0.5% BSA, 0.1% NaN3) at a cell density of 2×10^6 cells/ml, were added into 60 μl/well in the 96-well round bottom polypropylene plate (Cat.#3365, Costar). Compounds, diluted with the binding buffer (4-times higher concentration of the final concentration), were added into 30 μl/well in the polypropylene plate. [^125I]-labeled human eotaxin (Cat.#IM290, Amersham Pharmacia Biotech), diluted with the binding buffer at the concentration of 0.4 nM (final concentration; 0.1 nM), was added into 30 μl/well in the polypropylene plate. Total 120 μl/well of binding reaction mixture (60 μl/well of cell suspension, 30 μl/well of compound solution, and 30 μl/well of [^125I]-labeled eotaxin) were incubated in the polypropylene plate for 1 hour at room temperature after the incubation, 100 μl/well of the reaction mixture was transferred to a filtration plate (Cat.#MAFB-N0B, Millipore), and washed with the washing buffer (25 mM HEPES pH 7.6, 1 mM CaCl2, 5 mM MgCl2, 0.5% BSA, 0.1% NaN3, 0.5 M NaCl) twice. The 96-well filtration plate was pretreated with 100 μl/well of 0.5% polyethylenimine (Cat.#P-3143, Sigma) for 2-4 hours at room temperature and washed with the washing buffer twice before use. The non-specific binding was determined by parallel incubation in the presence of 500 nM of non-labeled eotaxin (Cat.#23209, Genzyme Techne). The radioactivities remained on the filter were measured by liquid scintillation counter (TopCount™, Packard) after an addition of 45 μl/well of scintillant (Microscint20, Cat.#6013621, Packard). The inhibition percent at each concentration of compound was calculated, and IC50 values were determined from the inhibition curve. [Determination of IC50 Values of Compounds in Calcium Mobilization Assay] (IC50 Ca2+) (1) Cell • Human CCR3-transformed K562 cells were used. The human CCR3-transformed K562 cells were maintained in RPMI-1640 supplemented with 10% FCS, 55 μM 2-mercaptoethanol (Cat.#21985-023, Life Technologies), 1 mM sodium pyruvate, 100 units/ml of penicillin G and 100 μg/ml of streptomycin and 0.4 mg/ml of Geneticin. Before the calcium mobilization assay, cells were pretreated with 5 mM sodium butyrate-containing the culture medium (2×10^5 cells/ml) for 20-24 hours to increase the expression of CCR3. (2) Calcium Mobilization Assay • Butyrate-pretreated cells were loaded with Fluo-3AM (Cat.#F-1242, Molecular Probes) in loading buffer (Hanks' solution Cat.#05906 Nissui, 20 mM HEPES pH 7.6, 0.1% BSA, 1 mM probenecid Cat.#P-8761 Sigma, 1 μM Fluo-3AM, 0.01% pluronic F-127 Cat.#P-6866 Molecular Probes) at a cell density of 1×10^7 cells/ml. Then, cells were washed with calcium assay buffer (Hanks' solution Cat.#05906 Nissui, 20 mM HEPES pH 7.6, 0.1% BSA, 1 mM Probenecid Cat.#P-8761 Sigma). The cell suspension (3.3×10^6 cells/ml) was added into 60 μl/well in the 96-well clear bottom black plate (Cat.#3904, Costar). […]

pIC50: −log10 of the molar value. A value given as a limit tells only on which side of the number the result lay.

A word on the melting point: it is the temperature, or range, at which the solid turns liquid. In general, pIC50 refers to the negative decadic logarithm of the IC50, by convention in mol/L. For `Cl.O=[N+]([O-])c1ccc(Oc2cccc3ccccc23)c(S(=O)(=O)N2CCNCC2)c1` [Example 1-11], the melting point was 196 to 198 °C. In addition, the pIC50 on Human CCR3 was 5.00 to 6.00.

Consider `Cc1ccccc1Oc1ccc([N+](=O)[O-])cc1S(=O)(=O)N1CCNCC1.Cl` [Example 1-12], for which the melting point was in the range of 167 to 169 °C. Moreover, the negative logarithm of the IC50 (pIC50) on Human CCR3 is 5.00 to 6.00.

Compound `Cl.Cl.Cl.Nc1ccc(Oc2ccc([N+](=O)[O-])cc2S(=O)(=O)N2CCNCC2)cc1` [Example 1-13] registered a melting point of 246 to 248 °C. Also, on Human CCR3, the pIC50 is below 5.00.

In the case of `COc1ccccc1Oc1ccc([N+](=O)[O-])cc1S(=O)(=O)N1CCNCC1.Cl` [Example 1-27], the melting point was 142 °C. Further, at Human CCR3, the pIC50 is above 6.00.

Compound `Cl.O=[N+]([O-])c1ccc(Oc2ccccc2Cl)c(S(=O)(=O)N2CCNCC2)c1` [Example 1-28] displayed a melting point of 166 to 169 °C. The pIC50 at Human CCR3 is 5.00 to 6.00.

In turn, `CC(=O)c1ccccc1Oc1ccc([N+](=O)[O-])cc1S(=O)(=O)N1CCNCC1.Cl` [Example 1-30] returned a melting point of 194 to 200 °C. In addition, the pIC50 on Human CCR3 is below 5.00.

With `CC(=O)c1cccc(Oc2ccc([N+](=O)[O-])cc2S(=O)(=O)N2CCNCC2)c1.Cl` [Example 1-31], the melting point worked out at 77 °C. Moreover, the pIC50 at Human CCR3 was below 5.00.

`CN(C)c1cccc(Oc2ccc([N+](=O)[O-])cc2S(=O)(=O)N2CCNCC2)c1.Cl` [Example 1-32] displayed a melting point of 182 °C. The pIC50 on Human CCR3 is below 5.00.

In the case of `Cl.O=[N+]([O-])c1ccc(Oc2cc(Cl)cc(Cl)c2)c(S(=O)(=O)N2CCNCC2)c1` [Example 1-33], the melting point is 260 to 264 °C. In addition, the negative logarithm of the IC50 (pIC50) at Human CCR3 was above 6.00.

Take `Cl.O=[N+]([O-])c1ccc(Oc2cccc(C(F)(F)F)c2)c(S(=O)(=O)N2CCNCC2)c1` [Example 1-34]: the melting point worked out at 128 °C. For the same compound, at Human CCR3, the negative-log IC50 (pIC50) was above 6.00.

For the compound `Cc1cc(C)cc(Oc2ccc(S(C)(=O)=O)cc2S(=O)(=O)N2CCNCC2)c1.Cl` [Example 1-35], the melting point lay in the range of 267 to 268 °C. In addition, the pIC50 at Human CCR3 is 5.00 to 6.00.

Compound `CC(C)(C)c1cccc(Oc2ccc([N+](=O)[O-])cc2S(=O)(=O)N2CCNCC2)c1.Cl` [Example 1-36] displayed a melting point of 155 °C. Besides, the pIC50 at Human CCR3 is 5.00 to 6.00.

`COc1cc(C)cc(Oc2ccc([N+](=O)[O-])cc2S(=O)(=O)N2CCNCC2)c1.Cl` [Example 1-37] gave a melting point of 113 °C. The negative logarithm of the IC50 (pIC50) on Human CCR3 was above 6.00.

`Cl.O=[N+]([O-])c1cccc(Oc2ccc([N+](=O)[O-])cc2S(=O)(=O)N2CCNCC2)c1` [Example 1-38] came in with a melting point of 150 °C. In addition, on Human CCR3, the negative logarithm of the IC50 (pIC50) is 5.00 to 6.00.

For the compound `Cl.O=[N+]([O-])c1ccc(Oc2cccc(Br)c2)c(S(=O)(=O)N2CCNCC2)c1` [Example 1-39], the melting point stood at 119 °C. On Human CCR3, the negative logarithm of the IC50 (pIC50) is above 6.00.

Compound `CCCCc1ccccc1Oc1ccc([N+](=O)[O-])cc1S(=O)(=O)N1CCNCC1.Cl` [Example 1-40] showed a melting point of 140 to 150 °C. The pIC50 at Human CCR3 was above 6.00.

With `Cc1cc(C)cc(Oc2ccccc2S(=O)(=O)N2CCNCC2)c1.Cl` [Example 1-41], the melting point fell in the range of 205 to 207 °C. For the same compound, at Human CCR3, the pIC50 was below 5.00.

Compound `Cc1cc(C)cc(Oc2ccc(C(=O)N3CCNCC3)cc2S(=O)(=O)N2CCNCC2)c1.Cl.Cl` [Example 1-42] displayed a melting point of 288 to 290 °C. Further, the negative-log IC50 (pIC50) on Human CCR3 is below 5.00.

The compound `Cc1cc(C)cc(Oc2ccc(C(F)(F)F)cc2S(=O)(=O)N2CCNCC2)c1.Cl` [Example 1-43] returned a melting point of 238 to 239 °C. In addition, on Human CCR3, the negative-log IC50 (pIC50) was above 6.00.

Consider `Cc1cc(C)cc(Oc2cc(C)c([N+](=O)[O-])cc2S(=O)(=O)N2CCNCC2)c1.Cl` [Example 1-44], for which the melting point was found to be 159 °C. The pIC50 at Human CCR3 was 5.00 to 6.00.

The compound `Cc1cc(Oc2cc(Cl)cc(Cl)c2)c(S(=O)(=O)N2CCNCC2)cc1[N+](=O)[O-].Cl` [Example 1-45] displayed a melting point of 168 °C. Besides, the negative-log IC50 (pIC50) on Human CCR3 was above 6.00.

In turn, `Cc1cc(C)cc(Oc2cc(C(F)(F)F)ccc2S(=O)(=O)N2CCNCC2)c1.Cl` [Example 1-46] showed a melting point of 250 to 251 °C. Moreover, the pIC50 at Human CCR3 is below 5.00.

`COc1cc(Oc2cc(C)cc(C)c2)c(S(=O)(=O)N2CCNCC2)cc1[N+](=O)[O-].Cl` [Example 1-47] showed a melting point of 188 °C. Also, on Human CCR3, the pIC50 is 5.00 to 6.00.

`O=[N+]([O-])c1ccc(Oc2cc(Cl)cc(Cl)c2)c(S(=O)(=O)N2CC3CCCNC3C2)c1` (stereo not drawn) [Example 1-48]: the melting point amounted to 170 °C. The pIC50 on Human CCR3 is above 6.00.

For the compound `Cl.O=S(=O)(c1cc(F)ccc1Oc1cc(Cl)cc(Cl)c1)N1CCNCC1` [Example 1-51], the melting point is 145 °C. Also, the negative-log IC50 (pIC50) at Human CCR3 is above 6.00.

As to `Cc1cc(C)cc(Oc2ccc([N+](=O)[O-])cc2S(=O)(=O)N2CC(C)NCC2C)c1.Cl` (stereo not drawn) [Example 1-54], the melting point worked out at 159 °C. In addition, the negative logarithm of the IC50 (pIC50) at Human CCR3 is above 6.00.

`Cl.O=S(=O)(c1cc(Cl)ccc1Oc1cc(Cl)cc(Cl)c1)N1CCNCC1` [Example 1-56] returned a melting point of 255 to 257 °C. Besides, the pIC50 at Human CCR3 was above 6.00.

Consider `Cl.O=S(=O)(c1cc(Br)ccc1Oc1cc(Cl)cc(Cl)c1)N1CCNCC1` [Example 1-57], for which the melting point lay within 269 to 271 °C. On Human CCR3, the pIC50 is above 6.00.

`Cc1cc(Oc2ccc([N+](=O)[O-])cc2S(=O)(=O)N2CCNCC2)ccc1Cl.Cl` [Example 1-60] had a melting point of 204 °C. The pIC50 on Human CCR3 was 5.00 to 6.00.

Compound `Cc1ccc(C)c(Oc2ccc([N+](=O)[O-])cc2S(=O)(=O)N2CCNCC2)c1C.Cl` [Example 1-61] came in with a melting point of 220 °C. Besides, the negative logarithm of the IC50 (pIC50) on Human CCR3 is 5.00 to 6.00.

Consider `Cc1cccc(Oc2ccc([N+](=O)[O-])cc2S(=O)(=O)N2CCNCC2)c1C.Cl` [Example 1-62], for which the melting point amounted to 142 °C. For the same compound, on Human CCR3, the pIC50 is above 6.00.

Compound `Cc1ccc(Oc2ccc([N+](=O)[O-])cc2S(=O)(=O)N2CCNCC2)cc1C.Cl` [Example 1-63] showed a melting point of 142 °C. Moreover, on Human CCR3, the pIC50 is 5.00 to 6.00.

`Cc1ccc(C)c(Oc2ccc([N+](=O)[O-])cc2S(=O)(=O)N2CCNCC2)c1.Cl` [Example 1-64] returned a melting point of 141 °C. Besides, the negative logarithm of the IC50 (pIC50) at Human CCR3 was above 6.00.
